The values that follow come from patent US5068325A, “4,5,7,8-tetrahydro-6H-thiazolo[5,4-d]azepines, their preparation and their use as pharmaceutical compositions” (priority 1988, dated 1991).

In one data set the target is T1, dopamine D1-receptors (Rattus norvegicus, UniProt P18901).
T1 construct: The striata were dissected out, weighed and homogenised in 25 volumes of tris buffer; from tissue; host or cells: rat striatum membranes (Chbb:Thom strain), prepared as for the D2 assay
In words: affinity for dopamine D1-receptors by displacement experiments with [3H]-Sch 23390. It is filed as binding. On the procedure:
Male rats (of the Chbb:Thom strain weighing about 200 g) were killed by a blow to the back of the neck. The brains were removed and dissected on ice. The striata were dissected out, weighed and homogenised in 25 volumes of tris buffer (50 mM tris-HCl, 1 mM EDTA, 5 mM MgCl2 and 1 mM ascorbic acid) for 30 seconds in an Ultra-Turrax at maximum speed, followed by 10 cycles in a Potter-Elvehjem at 1400 rpm. The pellet obtained after centrifuging at 50,000×g at 4° C. for 15 minutes was again taken up in 25 ml of tris buffer and centrifuged under the above conditions. The supernatant was discarded and the pellet obtained was incubated in 25 ml of tris buffer at 37° C. for 30 minutes and then centrifuged again at 50,000×g at 4° C. for 15 minutes. Finally, the pellet obtained was mixed with tris buffer to obtain a homogenate dilution of 1:500 (based on the weight of the striata).
Displacement curves were obtained from the data using the TOPFIT programming package (G. Heinzel in "Pharmacokinetics During Drug Development: Data Analysis and Evaluation Techniques", G. Bozler and J. M. van Rossum Eds., G. Fischer Verlag, Stuttgart 1982, 207).
7. Determining the affinity for dopamine D1-receptors by displacement experiments with [^3 H1-Sch 23390
The membrane preparation and data analysis were carried out as described for determining the affinity for dopamine D2 - receptors.
1 ml aliquots of the membrane preparation were incubated for 1 hour at ambient temperature with 1 ml of a solution of 0.25 nM [^3 H]-Sch 23390 (2.44 TBq/mmol, Messrs. DuPont NEN) and with increasing concentrations of the test substance (10^-11 to 10^-4 M). Incubation was ended by the addition of 5 ml of ice cold tris buffer and filtration through Whatman GF/B filters. The filters were washed twice, each time with 5 ml of ice cold buffer. The radioactivity of the filters was determined by liquid scintillation measurement in Instagel(R) (Messrs. Canberra Packard).
The non-specific binding was determined in the presence of 10^-6 M (-)-butaclamol (Research Biochemicals Inc.).

The target of a further data set is dopamine D2-receptors (Rattus norvegicus, UniProt P61169). In words: affinity for dopamine D2-receptors by displacement experiments with [3H]-spiperone (rat striatum membranes). It is filed as binding. The settings on record: for Ki: [3H]-spiperone, high-affinity form of the dopamine receptor; for α2-IC50 / D2-Ki: relative affinity for dopamine-D2 receptors compared with α2-adrenoceptors, the higher, the higher the D2/α2 selectivity.
Sequence of dopamine D2-receptors (P61169 whole entry): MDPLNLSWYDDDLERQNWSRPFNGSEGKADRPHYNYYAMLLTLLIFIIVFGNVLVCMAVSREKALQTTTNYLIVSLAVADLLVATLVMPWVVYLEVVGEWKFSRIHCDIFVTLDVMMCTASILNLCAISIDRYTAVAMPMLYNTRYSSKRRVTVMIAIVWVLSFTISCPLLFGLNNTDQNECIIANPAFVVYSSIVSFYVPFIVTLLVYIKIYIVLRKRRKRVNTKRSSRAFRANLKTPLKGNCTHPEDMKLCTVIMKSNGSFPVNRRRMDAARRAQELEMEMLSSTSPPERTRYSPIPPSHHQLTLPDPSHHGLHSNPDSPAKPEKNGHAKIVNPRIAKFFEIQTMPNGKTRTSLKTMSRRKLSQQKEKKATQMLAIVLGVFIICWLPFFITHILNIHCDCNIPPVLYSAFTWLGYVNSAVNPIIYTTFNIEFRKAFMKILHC

The subject of the next data set is MPTP monkeys. The data set can be described thus: post-synaptic dopaminergic activity in MPTP monkeys. It is filed as in vivo, rhesus monkey. The settings on record: for minimal effective dose: Primates, in Macaca mulatta, im, rhesus monkeys, i.m., read-out: minimum dose (MED) required to alleviate the Parkinson's symptoms. An excerpt: 6. Determining the post-synaptic dopaminergic activity in MPTP monkeys (Modified Method of R. S. Burns et al., Proc. Natl. Acad. Sci. 80. 4546 (1983))
The neurotoxin 1-methyl-4-phenyl-1,2,3,6- tetrahydro-pyridine (MPTP) produces in humans and monkeys an irreversible syndrome which in its clinical, pathological, biochemical and pharmacological appearance is very similar to idiopathic Parkinson's disease (Markey et al., Nature 311, 464 (1984)). The reason for this similarity is that MPTP selectively destroys those dopaminergic nerve cells in the substantia nigra of the brain which are also lost by degenerative processes in Parkinson's disease. There is even some discussion that MPTP or an MPTP-like substance might be formed in the body and trigger Parkinson's disease (S. H. Snyder, Nature 311, 514 (1984)). Possibly because of the specific MPTP metabolism, the clinical formation of the MPTP-induced Parkinson syndrome has hitherto been detected only in humans and monkeys. The MPTP model produced in the rhesus monkey is therefore exceptionally suitable for testing the activity of post-synaptically acting dopamine agonists. For this purpose, rhesus monkeys were given MPTP in overall doses of up to about 6 mg/kg of body weight, until the following symptoms appeared: The animals were akinetic and unable to take water and food.
It is clear that with the compounds according to the invention there is no sedative effect or ataxia at a dosage which is several times the MED, which can be put down to the absence of a corresponding activity mediated by the α2- receptors.

The test system of data set [1] is hypersensitive dopamine receptor. The data set can be described thus: motility triggering in the mouse treated 24 hours earlier with reserpine. It is filed as in vivo. How it is done: This test determines predominantly agonistic effects on the hypersensitive dopamine receptor.
Male mice are treated 24 hours before the experiment with 5 mg/kg i.p. reserpine. The animals are kept at 25°-30° C. and treated three times with 2 ml of a 5% glucose solution in tyrode s.c. (the first time when the reserpine is given, the second time in the evening of the pre-treatment day and the third time on the morning of the test day).
[…] (The injection volume is usually 0.1 ml/10 g of body weight). 30 minutes later the groups of animals are placed in the observation cages (measuring 42 x 24 x 8 cm) and fitted with an infrared lightbeam in order to measure their activity. The value measured is the frequency with which a group of 6 mice pass through the infra-red beam within 5 minutes ("running pulses/5 minutes"; mean at n=3; mean±s.e.m. at n=6).
3 to 6 groups are tested for each substance.

T1 sequence (P18901 whole entry): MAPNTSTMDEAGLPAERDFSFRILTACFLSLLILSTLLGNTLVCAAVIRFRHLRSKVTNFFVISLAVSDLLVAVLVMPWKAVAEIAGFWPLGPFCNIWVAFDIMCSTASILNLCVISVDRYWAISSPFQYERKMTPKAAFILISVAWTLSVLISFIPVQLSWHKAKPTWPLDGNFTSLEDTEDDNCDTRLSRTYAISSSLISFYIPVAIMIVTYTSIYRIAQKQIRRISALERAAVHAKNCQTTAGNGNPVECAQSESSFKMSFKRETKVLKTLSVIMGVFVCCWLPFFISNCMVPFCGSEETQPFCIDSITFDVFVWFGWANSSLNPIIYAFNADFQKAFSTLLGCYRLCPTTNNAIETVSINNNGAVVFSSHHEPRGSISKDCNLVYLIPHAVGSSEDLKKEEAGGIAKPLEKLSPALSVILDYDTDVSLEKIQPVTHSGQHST

In the case of `Nc1nc2c(s1)CCN(CC=Cc1cc3ccccc3cn1)CC2` [Example 24a, 2-Amino-6-(3-(3-isoquinolinyl)allyl)-4,5,7,8-tetrahydro-6H-thiazolo[5,4-d]azepine], affinity on dopamine D1-receptors was put at a Ki of 3 µM. At dopamine D2-receptors, the inhibition constant (Ki) was 0.0017 µM and the “α2-IC50 / D2-Ki” value turned out to be 529.

On to `Nc1nc2c(s1)CCN(Cc1ccc(Cl)cc1)CC2` [Compound B, reference compound], for which, in the data set with MPTP monkeys (0.15 mg/kg i.m.), the Duration of activity amounted to 5 h. In data set [1] (5 mg/kg s.c.), the “running pulses every 5 minutes” value is on record as 22 running pulses every 5 minutes. Also, the “effectiveness in motility triggering compared with compound A” value in data set [1] (reserpine-treated mice, s.c.) is “less effective than compound A”. Besides, the Ki was found to be 11 µM at dopamine D1-receptors and 0.013 µM at dopamine D2-receptors. Moreover, at dopamine D2-receptors, the “α2-IC50 / D2-Ki” value turned out to be 31.5.

On to `N#Cc1ccc(C=CCN2CCc3nc(N)sc3CC2)cc1` [Example 14b, 2-Amino-6-(3-(4-cyano-phenyl)allyl)-4,5,7,8-tetrahydro-6H-thiazolo[5,4-d]azepine], for which, in the data set with MPTP monkeys (0.05 mg/kg i.m. (MED)), the Duration of activity is 2.0 to 5 h and the Side effects result was “none”. In the data set on MPTP monkeys (0.50 mg/kg i.m.), this molecule yielded a Duration of activity greater than 5 h. Besides, the minimal effective dose in the data set on MPTP monkeys is 0.05 mg/kg. Moreover, on dopamine D2-receptors, the inhibition constant Ki worked out at 0.0026 µM and the “α2-IC50 / D2-Ki” value is listed as 192.

`Nc1nc2c(s1)CCN(CC=Cc1cccc(OCc3ccccc3)c1)CC2` [Example 4y, 2-Amino-6-(3-(3-benzyloxy-phenyl)allyl)-4,5,7,8-tetrahydro-6H-thiazolo[5,4-d]azepine]: the Ki at dopamine D1-receptors stood at 1.5 µM. At dopamine D2-receptors, the inhibitory constant (Ki) was 0.00073 µM and the “α2-IC50 / D2-Ki” value was determined as 410.

In the case of `Nc1nc2c(s1)CCN(CC=Cc1nccc3ccccc13)CC2` [Example 7a, 2-Amino-6-(3-(1-isoquinolinyl)allyl)-4,5,7,8-tetrahydro-6H-thiazolo[5,4-d]azepine], affinity at dopamine D1-receptors was put at a Ki of 0.18 µM. For the same molecule, on dopamine D2-receptors, affinity was put at a Ki of 0.00092 µM and the “α2-IC50 / D2-Ki” value is reported as 3370.

The molecule `Nc1nc2c(s1)CCN(CC=Cc1cccc3ccccc13)CC2` [Example 4t, 2-Amino-6-(3-(1-naphthyl)allyl)-4,5,7,8-tetrahydro-6H-thiazolo[5,4-d]azepine] registered a Ki at dopamine D1-receptors of 0.21 µM. Also, at dopamine D2-receptors, the affinity corresponds to a Ki of 0.0031 µM and the “α2-IC50 / D2-Ki” value is given as 148.

`C=CCN1CCc2nc(N)sc2CC1` [Compound A, reference compound] yielded a Duration of activity in the data set with MPTP monkeys (0.03 mg/kg i.m. (MED)) of 0.5 to 1 h. Besides, the “effect on MPTP-induced symptoms” value in the data set on MPTP monkeys (MPTP-treated rhesus monkeys) is reported as “temporary cessation of this phenomenon”. The minimal effective dose with MPTP monkeys turned out to be 0.03 mg/kg. In addition, the “running pulses every 5 minutes” value in data set [1] (3 mg/kg s.c.) was 50 running pulses every 5 minutes. The ED (50 running pulses/5 min) in data set [1] (Mus musculus, sc, reserpine-treated mice, s.c., read-out: DLi50 (dosage resulting in 50 running pulses every 5 minutes)) is 3 mg/kg. In addition, at dopamine D1-receptors, the affinity, expressed as Ki, was 12 µM. For the same molecule, on dopamine D2-receptors, the Ki worked out at 0.005 µM and the “α2-IC50 / D2-Ki” value came to 4.8.

`Nc1nc2c(s1)CCN(CC=Cc1ccccc1N1CCCCC1)CC2` [Example 11p, 2-Amino-6-(3-(2-(1-piperidino)phenyl)-2-propen-1-yl)-4,5,7,8-tetrahydro-6H-thiazolo[5,4-d]azepine] gave a Ki at dopamine D1-receptors of 0.92 µM. On dopamine D2-receptors, the affinity corresponds to a Ki of 0.0099 µM and the “α2-IC50 / D2-Ki” value was found to be 303.
